{"source": "patent US20090041753A1", "about": "“Cytokine signaling” (priority 2006, published 2009)", "test_system": "purified astrocyte cultures", "test": "CXCL1 addition to purified spinal cord astrocyte cultures, CSPG by immunocytochemistry and dot blot", "assay_type": "cell-based", "details": "CXCL1 0.5 ng/ml, 3 days", "experimental": "Cells were treated with CXCL1 (0.5 ng/ml) for 3 days and assayed for CSPG deposition onto substrate by immunocytochemistry and released into medium. […] GFAP (red), CSPG (green) (FIG. 34) For the culture studies, cultures of spinal cord astrocytes were assayed for basal levels of mRNA expression of CXCL1 and CXCR2 by RT-PCR (FIG. 33). The effect of 3 day CXCL1 protein addition (0.5 ng/ml) on CSPG protein expression was conducted on spinal cord astrocyte cultures as well as by immunocytochemistry and dot blot assays to analyze secreted and bound CSPG (FIG. 34)."}
{"substance": "CXCL1: soluble secreted chemoattractive cytokine of the ELR positive family of CXC chemokines; preferred receptor CXCR2", "values": [{"measurement": "CSPG expression (deposition onto substrate, immunocytochemistry)", "result": "induces CSPG expression"}, {"measurement": "CSPG released into medium (dot blot)", "result": "increased CSPG"}, {"measurement": "astrocyte morphology", "result": "changes morphology"}]}
